Results reported in ChEMBL document CHEMBL5131397, “Discovery and Optimization of Pyrazole Amides as Inhibitors of ELOVL1” (J Med Chem, 2021).
The source made the active and inactive calls. No cut-off for these calls is given here.

What was measured:
[1] = Unbound brain-to-plasma concentration ratio in rat at 3 mg/kg, po measured after 120 mins; format: ADME, organism-based; conditions: brain and plasma, read-out: K(p,uu,brain)
[2] = Reduction in C26:0 LPC level in ABCD1 knock out mouse blood assessed as fold increase at 0.5 to 32 mg/kg, po qd for 105 days by LC-MS/MS analysis; format: functional; conditions: dose 0.5-32 mg/kg, time 105 day
[3] = Volume of distribution at steady state in Beagle dog at 0.5 mg/kg, iv upto 48 hrs by LC/MS/MS analysis; format: ADME, organism-based, Canis lupus familiaris; conditions: in vivo, read-out: Vdss
[4] = Plasma protein binding in dog at 5 uM; format: ADME, cell-free, Canis lupus familiaris; conditions: read-out: PPB (converted)
[5] = Clearance in Beagle dog at 0.5 mg/kg, iv upto 48 hrs by LC/MS/MS analysis; format: ADME, organism-based, Canis lupus familiaris; conditions: in vivo
[6] = Clearance in Cynomolgus monkey at 1 mg/kg, iv upto 48 hrs by LC/MS/MS analysis; format: ADME, organism-based, Macaca fascicularis; conditions: in vivo
[7] = Half life in Cynomolgus monkey at 1 mg/kg, iv upto 48 hrs by LC/MS/MS analysis; format: ADME, organism-based, Macaca fascicularis; conditions: in vivo
[8] = AUC (infinity) in Cynomolgus monkey at 3 mg/kg, po upto 24 hrs by LC/MS/MS analysis; format: ADME, organism-based, Macaca fascicularis; set-up: dose 3 mg/kg, time < 24 hrs, route po; conditions: in vivo
[9] = Cmax in Beagle dog at 3 mg/kg, po upto 24 hrs by LC/MS/MS analysis; format: ADME, organism-based, Canis lupus familiaris; set-up: dose 3 mg/kg, time < 24 hrs, route po; conditions: in vivo
[10] = biological target: T1, Very long chain fatty acid elongase 1 (Homo sapiens, UniProt Q9BW60); assay: Inhibition of ELOVL1 in CALD patient-derived human fibroblast assessed as reduction of C26:0 VLCFA synthesis incubated for 48 hrs by cellular assay; format: cell-based
T1 sequence (Q9BW60 whole entry): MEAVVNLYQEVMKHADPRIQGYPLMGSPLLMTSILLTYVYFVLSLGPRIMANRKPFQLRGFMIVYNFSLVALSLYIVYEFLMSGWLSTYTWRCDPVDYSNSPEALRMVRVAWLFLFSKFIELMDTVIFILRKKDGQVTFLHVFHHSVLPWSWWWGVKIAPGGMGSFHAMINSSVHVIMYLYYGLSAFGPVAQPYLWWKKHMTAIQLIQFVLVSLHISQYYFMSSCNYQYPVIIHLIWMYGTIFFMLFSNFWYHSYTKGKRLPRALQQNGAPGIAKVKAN

[11] = biological target: T1, Very long chain fatty acid elongase 1; assay: Inhibition of ELOVL1 in AMN 2 patient-derived fibroblast assessed as reduction of C26:0 VLCFA synthesis incubated for 48 hrs by cellular assay; format: cell-based
[12] = biological target: T2, Very long chain fatty acid elongase 7 (Homo sapiens) (UniProt A1L3X0); assay: Inhibition of ELOVL-7 in human HEK2936E cells assessed as reduction in C22:0 lysophosphatidyl choline synthesis at 100 nM in presence of 13C-labeled acetate measured after 48 hrs; format: cell-based
T2 sequence (whole entry): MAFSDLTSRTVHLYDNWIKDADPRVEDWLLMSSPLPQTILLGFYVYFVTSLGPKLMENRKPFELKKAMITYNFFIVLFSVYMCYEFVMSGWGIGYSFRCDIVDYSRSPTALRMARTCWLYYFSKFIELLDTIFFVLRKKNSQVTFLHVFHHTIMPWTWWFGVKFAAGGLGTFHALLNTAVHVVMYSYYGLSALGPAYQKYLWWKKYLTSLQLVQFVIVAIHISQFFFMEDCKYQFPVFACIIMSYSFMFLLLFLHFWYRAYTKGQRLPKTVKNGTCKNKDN

Mus musculus [13] = assay: Reduction of C26:0 LPC level in ABCD1 KO mouse blood at 5 to 20 mg/kg, po qd for 8 months continuous dosing by LC-MS/MS analysis; format: functional, organism-based; conditions: dose 5-20 mg/kg
[14] = Reduction of C26:0 /C16:0 LPC level in ABCD1 KO mouse blood at 5 mg/kg, po qd for 8 months by LC-MS/MS analysis relative to control; format: functional; set-up: scale not given: the % may be the effect or the level left; conditions: 5840 h
Mus musculus [15] = assay: Reduction in C26:0 LPC level in ABCD1 KO mouse blood administered orally qd for 105 days by LC-MS/MS analysis; format: functional, tissue-based; conditions: route po, time 105.0 day, DDE = dose-dependent effect
[16] = Reduction in C26:0 LPC level in ABCD1 knock out mouse blood at or above 4 mg/kg, po qd for 105 days by LC-MS/MS analysis relative to control; format: functional; set-up: scale not given: the % may be the effect or the level left; conditions: time 105 day
[17] = Reduction in C26:0 LPC level in Cynomolgus monkey plasma at 15 mg/kg, po qd for 13 weeks by LC-MS/MS analysis; format: functional, Macaca fascicularis; set-up: scale not given: the % may be the effect or the level left
[18] = Reduction in C26:0/C16:0 LPC level in ABCD1 knock out mouse CNS at 4 mg/kg, po qd measured after 6 months of dosing by LC-MS/MS analysis; format: functional; set-up: scale not given: the % may be the effect or the level left; conditions: 4380 h
[19] = Reduction in C26:0 LPC level in ABCD1 knock out mouse CNS at 8 mg/kg, po qd measured after 6 months of dosing by LC-MS/MS analysis; format: functional; set-up: scale not given: the % may be the effect or the level left; conditions: 4380 h
[20] = Reduction in C26:0 LPC level in ABCD1 knock out mouse CNS at 16 mg/kg, po qd measured after 6 months of dosing by LC-MS/MS analysis; format: functional; set-up: scale not given: the % may be the effect or the level left; conditions: 4380 h
[21] = Increase in C20:0/C16:0 LPC level in ABCD1 knock out mouse CNS at 10 mg/kg, po qd measured after 3 months of dosing by LC-MS/MS analysis; format: functional; conditions: 2190 h
[22] = Toxicity in Sprague-Dawley rat assessed as ocular hyperplasia at 5 mg/kg/day, po administered for 8 weeks by microscopic observation analysis; format: organism-based; conditions: in vivo, 1344 h
[23] = Toxicity in juvenile Sprague-Dawley rat assessed as stomach lesions at 5 to 75 mg/kg/day, po treatment started from postnatal day 18 to 114 days; format: organism-based; conditions: in vivo, dose lower 5 mg/kg/day, time lower 18 day, dose upper 75 mg/kg/day, time upper 114 day
[24] = Toxicity in juvenile Sprague-Dawley rat assessed as corneal lesions at 5 to 75 mg/kg/day, po treatment started from postnatal day 18 to 114 days; format: organism-based; conditions: in vivo, dose lower 5 mg/kg/day, time lower 18 day, dose upper 75 mg/kg/day, time upper 114 day
[25] = Toxicity in Cynomolgus monkey assessed as minimal focal gliosis at 20 to 50 mg/kg/day, po administered for 14 days; format: organism-based, Macaca fascicularis; conditions: in vivo, 336 h, dose 20-50 mg/kg/day, time 14 day
[26] = Toxicity in Cynomolgus monkey assessed as hyperkeratosis at 5 to 50 mg/kg/day, po administered for 14 days by microscopic observation analysis; format: organism-based, Macaca fascicularis; conditions: in vivo, 336 h, dose 5-50 mg/kg/day, time 14 day

**Q.** For O=C(Nc1ccn(-c2ccnc(F)c2)n1)C1(c2ccccc2F)CC1, which Kp uu at 2 h [1] is on record?
**A.** Its Kp uu at 2 h is 1.1.

**Q.** And the “fold change (FC)” value [2]?
**A.** Its value is 10.

**Q.** What about the Vd [3] of the same molecule?
**A.** The Vd was 7.5 L/kg.

**Q.** What about the fraction unbound at 5 µM [4] of the same molecule?
**A.** The fraction unbound at 5 µM was 0.061.

**Q.** What about the clearance [5] of the same molecule?
**A.** Its clearance is 30.4 mL/min/kg.

**Q.** And the clearance [6]?
**A.** Its clearance is 7 mL/min/kg.

**Q.** And the half-life [7]?
**A.** Its half-life is 5.4 h.

**Q.** And the AUC(0-inf) [8]?
**A.** Its AUC(0-inf) is 7700 ng·h/mL.

**Q.** What about the Cmax [9] of the same molecule?
**A.** The Cmax was 261 ng/mL.

**Q.** And the IC50 [10]?
**A.** The IC50 was 0.02 µM.

**Q.** What about the IC50 [11] of the same molecule?
**A.** Its IC50 is 0.017 µM.

**Q.** What about the inhibition [12] of the same molecule?
**A.** Its inhibition is “Active”.

**Q.** What about the Activity (Mus musculus [13]) of the same molecule?
**A.** Its Activity is “Active”.

**Q.** What about the Activity [14] of the same molecule?
**A.** Its Activity is 60%.

**Q.** And the Activity (Mus musculus [15])?
**A.** The Activity was “Dde”.

**Q.** What about the Activity [16] of the same molecule?
**A.** Its Activity is 85%.

**Q.** What about the Activity [17] of the same molecule?
**A.** Its Activity is 82%.

**Q.** What about the Activity [18] of the same molecule?
**A.** Its Activity is 57%.

**Q.** And the Activity [19]?
**A.** Its Activity is 49%.

**Q.** And the Activity [20]?
**A.** Its Activity is 51%.

**Q.** What about the Activity [21] of the same molecule?
**A.** The Activity was 38%.

**Q.** And the Activity [22]?
**A.** Its Activity is “Toxic”.

**Q.** What about the Activity [23] of the same molecule?
**A.** The Activity was “Toxic”.

**Q.** And the Activity [24]?
**A.** Its Activity is “Toxic”.

**Q.** What about the Activity [25] of the same molecule?
**A.** The Activity was “Toxic”.

**Q.** What about the Activity [26] of the same molecule?
**A.** Its Activity is “Toxic”.
